This test deals with MV4-11 cells. As to the kind of experiment: Anticancer activity: Alamar Blue 3-day proliferation assay. Format: cell-based. As to conditions: AML cell line MV4-11, 72 h, read-out: MV4-11 EC50_μM. How it is done: Anticancer Activity: Alamar Blue Assay
The impact of the compounds on cancer cell proliferation was determined using the AML cell line MV4-11 (ATCC) in a 3-day proliferation assay. MV4-11 cells were maintained in RPMI supplemented with 10% FBS at 37° C., 5% CO2. For compound testing, MV4-11 cells were plated in a 96-well black bottom plate at a density of 15,000 cells/well in 100 μL culture media and incubated at 37° C. overnight. Compound dilution series were prepared in DMSO via a 3-fold serial dilution from 100 μM to 0.005 μM. The DMSO dilution series were then diluted with media, with the final compound concentrations added to the wells ranging from 10 μM to 0.0005 μM. […] The fluorescent readings from the Alamar Blue assay were normalized to the DMSO treated cells and analyzed using the GraphPad Prism software with sigmoidal curve fitting to obtain EC50.
For orientation: Alamar Blue is a resazurin reagent that responds to reducing activity.

For `CCNC(=O)CC1N=C(c2c(F)cccc2F)c2cc(OC)ccc2-c2cn(C)c(=O)cc21` (racemic) [Compound 38, ±2-(7-(2,6-difluorophenyl)-9-methoxy-2-methyl-3-oxo-3,5-dihydro-2H-benzo[c]pyrido[3,4-e]azepin-5-yl)-N-ethylacetamide], the EC50 was determined as 13 nM.

The record behind these values is US11319326B2, “Tricyclic fused derivatives of 1-(cyclo)alkyl pyrtdin-2-one useful for the treatment of cancer” (JUBILANT BIOSYS LIMITED, priority 2015, dated 2022).
